# Source: patent US5326902A, “Oxyalkyne compounds, pharmaceutical compositions containing them and processes for preparing such compounds and compositions” (Gruenenthal GmbH, priority 1992, dated 1994)
# What was measured:
# 12-lipoxygenase = target: T1, 12-lipoxygenase (Homo sapiens, UniProt P18054); test: Inhibition of 12-lipoxygenase in homogenates of human thrombocytes; format: biochemical; settings: arachidonic acid 40 μM, indomethacin 10 μM, 25° C., read-out: IC50-value of the inhibitory action on 12-Lipoxygenase
# T1 sequence (P18054 1-663): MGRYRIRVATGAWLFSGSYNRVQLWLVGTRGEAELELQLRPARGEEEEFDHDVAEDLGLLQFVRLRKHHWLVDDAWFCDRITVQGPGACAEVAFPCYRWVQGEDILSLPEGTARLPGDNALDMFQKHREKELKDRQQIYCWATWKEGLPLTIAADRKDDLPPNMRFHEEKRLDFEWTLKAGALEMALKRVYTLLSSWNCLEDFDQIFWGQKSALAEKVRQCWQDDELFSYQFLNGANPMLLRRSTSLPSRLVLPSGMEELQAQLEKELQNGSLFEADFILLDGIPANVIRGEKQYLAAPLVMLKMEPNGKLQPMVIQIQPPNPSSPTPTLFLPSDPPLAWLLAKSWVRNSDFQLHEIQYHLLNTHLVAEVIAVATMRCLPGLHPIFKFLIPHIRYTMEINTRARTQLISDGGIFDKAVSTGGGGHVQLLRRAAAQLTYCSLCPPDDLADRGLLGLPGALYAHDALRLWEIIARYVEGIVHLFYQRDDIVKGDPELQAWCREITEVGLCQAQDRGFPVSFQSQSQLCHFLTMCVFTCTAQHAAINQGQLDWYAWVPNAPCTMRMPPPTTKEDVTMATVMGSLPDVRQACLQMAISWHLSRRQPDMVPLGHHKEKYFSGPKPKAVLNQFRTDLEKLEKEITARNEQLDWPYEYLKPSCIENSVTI
# Description: Human thrombocytes were suspended at 3×10^9 cells/ml, fumigated with nitrogen, and sonicated with ultrasonic energy while cooling in ice water. After centrifugation at 10.000 × g for 15 minutes, reduced glutathione (3 mM) was added. 1 ml portions of the 10,000 × g supernatant were incubated with a compound according to the invention or with ethanol at 25° C. for 4 minutes and then with 1-^14 C-labelled arachidonic acid (40 μM) for 7.5 minutes. In addition, indomethacin (10 μM) was added to each sample. The reaction was stopped by adding acetic acid, and then the metabolites of arachidonic acid were extracted with ethyl acetate and analyzed by thin layer chromatography. The distribution of the […] fractions was measured using a TLC-linear analyzer. The IC50 -values were determined graphically from semilogarithmic plots. The IC50 -value of the inhibitory action on 12-Lipoxygenase was 1 μmolar when the compound prepared according to Example 1 was used.
# [1] = system: bronchoconstriction elicited by ovalbumin; test: Allergen-induced bronchoconstriction in guinea pigs (Konzett-Rossler); format: in vivo, guinea pig; settings: Cavia porcellus, 1 h; oral, 60 minutes before ovalbumin (0.2 mg/kg intravenous); passively sensitized guinea pigs; read-out: ED40-Value (40% average inhibition of the bronchoconstriction elicited by ovalbumin)
# Description: The anti-asthmatic effect of compounds according to the invention was tested in anesthetized and ventilated guinea pigs. To induce an asthmatic reaction, the animals were passively sensitized by a single intraperitoneal injection of anti-ovalbumin serum. After 48 hours, the asthmatic reaction was elicited by intravenous challenge with 0.2 mg/kg of ovalbumin. The immediately resulting bronchoconstriction was measured as an increase in intratracheal pressure. Effects caused by histamine, serotonin and sympathic counterreaction were eliminated by intravenous pretreatment with 2.15 mg/kg of mepyramine, 46.4 μg/kg of propranolol, 4.64 mg/kg of atropine and 1 mg/kg of methysergide, all administered 5 minutes before challenge. Compounds according to the invention were administered orally 60 minutes before the administration of ovalbumin. The following […] for the inhibition of the bronchoconstriction elicited by ovalbumin, i.e. the effective doses causing a 40% average inhibition of the bronchoconstriction, were determined: […]
# 5-lipoxygenase = target: T2, 5-lipoxygenase (Rattus norvegicus, UniProt P12527); test: Inhibition of Cell-free 5-lipoxygenase from RBL-1-cells (polarographic, 10,000 × g supernatant); format: biochemical; settings: 10,000 × g supernatant of homogenized RBL-1-cells; arachidonic acid 75 μM; 35° C.; calculated IC50
# T2 construct: endogenous in cells; host or cells: RBL-1 cells (rat basophilic leukemia)
# T2 sequence (P12527 1-673): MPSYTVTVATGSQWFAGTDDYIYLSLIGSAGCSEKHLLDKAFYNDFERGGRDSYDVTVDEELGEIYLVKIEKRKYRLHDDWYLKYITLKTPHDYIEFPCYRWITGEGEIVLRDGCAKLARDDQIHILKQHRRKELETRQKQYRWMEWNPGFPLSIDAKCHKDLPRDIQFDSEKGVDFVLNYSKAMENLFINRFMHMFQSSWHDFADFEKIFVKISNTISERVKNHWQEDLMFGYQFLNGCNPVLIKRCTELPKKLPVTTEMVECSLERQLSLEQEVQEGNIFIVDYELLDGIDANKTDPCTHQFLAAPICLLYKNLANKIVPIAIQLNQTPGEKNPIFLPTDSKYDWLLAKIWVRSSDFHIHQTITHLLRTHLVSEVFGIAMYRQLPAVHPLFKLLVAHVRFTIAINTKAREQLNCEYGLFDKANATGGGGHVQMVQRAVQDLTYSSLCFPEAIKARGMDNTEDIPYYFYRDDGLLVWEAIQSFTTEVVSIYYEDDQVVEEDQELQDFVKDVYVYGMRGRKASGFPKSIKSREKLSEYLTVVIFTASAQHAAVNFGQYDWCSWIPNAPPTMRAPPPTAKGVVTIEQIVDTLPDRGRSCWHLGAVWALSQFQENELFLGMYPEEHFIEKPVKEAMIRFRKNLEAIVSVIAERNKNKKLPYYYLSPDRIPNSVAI
# Description: Cell-free 5-lipoxygenase was polarographically measured from 10,000 × g supernatant of homogenized rat basophilic leucemia cells (M. Haurand & L. Flohe in Biol. Chem. Hoppe-Seyler 369, 133 to 142 (1988)). After preincubation of the 10,000 × g supernatant with arachidonic acid (75 μM), ATP (adenosine triphosphate; 4 mM), reduced glutathione (4 mM), and either a compound according to the invention (0.1 to 100 μM) or a solvent (ethanol and/or dimethyl sulfoxide) at 35° C. for 5 minutes, the lipoxygenase reaction was initiated by addition of calcium chloride (3 mM) and simultaneously recorded.
# The activity of 5-lipoxygenase was determined from the difference in the pO2 -decrease before and after addition of calcium chloride. The evaluation included the initial rate of the reaction after the lag-phase as well as the duration of the lag-phase. In the concentration range of from 3 to 50 μM, the test substances induced lag-phases between 20 and 60 seconds.
smiles,measurement,setting,value
"CC(=O)N(O)Cc1ccc(C(O)C#Cc2ccccc2)cc1 (racemic) [Example 1, N-Hydroxy-N-[4-[1-hydroxy-3-phenyl-prop-2-yn-1-yl]benzyl]acetamide]",IC50,12-lipoxygenase,1000 nM
same,ED40,[1],17 mg/kg
same,IC50,5-lipoxygenase,5 µM
